This note sets out measurements from US20240081377A1, “USING ORGANOIDS AND/OR SPHEROIDS TO CULTIVATE MEAT” (Orbillion Bio, Inc., priority 2020, published 2024).

One test deals with A549 spheroids. Kind of test: On-chip drug toxicity screening of A549 spheroids (dye exclusion assay, Hoechst / ethidium homodimer-1). It is filed as cell-based, human. Conditions: A549 spheroids of all sizes (300-1000 μm), different concentrations, 24 hours.
The subject of a further test is spheroids. Kind of test: Spheroid expansion (spheroid diameter) following recombinant growth factor treatment. It is filed as cell-based. Conditions: wells 300 μm in diameter, 3 days after treatment. The source says:
FIG. 20A to FIG. 20B illustrates spheroid diameter of cells cultured in wells measuring 900 μm in diameter for 12 days following growth factor treatment with fibroblast growth factor (FGF), hepatocyte growth factor (HGF), and insulin-like growth factor (IGF). More specifically, FIG. 20A depicts spheroid diameter in and FIG. 20B depicts spheroid diameter as a percentage of size increase as compared to control.
FIG. 21A to FIG. 21B depicts spheroid diameter of cells cultured in wells measuring 300 μm in diameter for 12 days following growth factor treatment with fibroblast growth factor (FGF), hepatocyte growth factor (HGF), and insulin-like growth factor (IGF). More specifically, FIG. 21A depicts spheroid diameter in and FIG. 21B depicts spheroid diameter as a percentage of size increase as compared to control.

Procedure for A549 spheroids: A549 cells were seeded at a concentration of 1×10^6 cells per ml and cultivated for three days under standard cell culture conditions under bi-directional flow (e.g. using a rocking device). Stock solutions of 10 mM cisplatin (Sigma-Aldrich, Austria) in DMSO and 10 mM doxorubicin (Sigma-Aldrich, Austria) in PBS were prepared. Doxorubicin and cisplatin were dissolved in cell culture medium to yield concentrations of 0.5, 1, 5, 10, 25, 50 and 500 μM for the treatment of A549 spheroids. Cell culture medium within the channels of the devices was replaced with drug containing medium and incubated for 24 hours prior to cell death analyses. One channel on a separate device was used as an untreated control. […] Raw fluorescence signals were processed and dose-response curves were generated by Sigmoidal-4PL non-linear regression analysis.
Live A549 cell spheroids of different sizes (300 μm, 500 μm, 700 μm, 900 μm, 1000 μm in diameter) were stained with Hoechst; blue and Ethidium homodimer-1; red and treated with different concentrations (100 μM, 10 μM and 1 μM) of CIS, DOX, and CIS:DOX to screen drug toxicity for up to 24 hours following drug treatment. […] Viability of live human A549 cell spheroids of different sizes (measured as a % of the untreated control) was calculated as a function of chemotherapy drug treatment concentration (CIS, DOX, and CIS:DOX). […]

For `COc1cccc2c1C(=O)c1c(O)c3c(c(O)c1C2=O)C[C@@](O)(C(=O)CO)C[C@@H]3O[C@H]1C[C@H](N)[C@H](O)[C@H](C)O1` [DOX, Doxorubicin], the “viability of A549 cell spheroids (measured as a % of the untreated control)” value in the test on A549 spheroids was “decreased sharply”. As for “HGF: recombinant hepatocyte growth factor”, the “spheroid diameter, size increase as compared to control” value in the test with spheroids is given as “largest difference”.
